What was measured:
[1] = Visual solubility of polyene fungicides in water and water + SDS; assay type: physicochemical; conditions: soluble if mixture is clear
Experimental: Mixtures are made with several polyene fungicides in several concentrations The used polyene fungicides are nystatin, amphotericin and natamycin. The solubility rate is measured visually of the polyene fungicides in demineralized water as such or according to example 1 in combination with SDS to a final SDS concentration of 1% (w/w). It is soluble if a mixture is clear after one minute stirring at room temperature.

[2] = Rest activity (stability) of completely dissolved natamycin in aqueous SDS solution over time, HPLC; assay type: physicochemical; conditions: 1000 ppm natamycin added, 1% SDS
Experimental: This method was used to analyze the amount of
active natamycin in a water-based mixture of several components. The method was HPLC based using the International Dairy Federation (Provisional ADF Standard 140, 1987) with a Lichrosorb RP 8 column. Detection was by UV at 303 nm with a range of 0.1-4 mg/L with an injection volume of 20 μl. Sample preparation was carried out by weighing 2 gram prepared formulation with an accuracy of 1 mgram in a measuring flask. 4 ml demineralized water (demiwater) was added and the mixture was stirred for 15 minutes to get a homogeneous suspension. Subsequently 80 ml ethanol was added and the mixture was stirred for 10 minutes. After ultrasonic treatment the solution was filled up to 100 ml with de-minaralized water and then diluted and/or filtered (0.2 μm) before injecting. The amount of active natamycin was calculated as ppm against a series of standards of known natamycin concentrations.
The mixtures were made by adding 2 gram Delvocid (Natamycin) together with 50 gram 20% SDS solution and eventually additives to a final weight of 1000 gram with demineralised (=demi) water.
This crude mixture was mixed for 5 minutes to obtain a homogeneous mixture and accordingly adjusted to pH 4-6 with ammonia.
The obtained formulations with an added amount of active natamycin of 1000 ppm were stored at 18° C. in a closed pot in the dark.
The prepared mixtures were measured over time for the amount of active natamycin using the analytical method as described hereinabove.
The mixture as described in Example 1 was adjusted to pH=4.0 or pH=6.0 and the natamycin activity was measured over time.
The mixture as described in Example 1 is combined with 1000 ppm di-sodium-EDTA, adjusted to pH 6.0 and the natamycin activity was measured over time.

Row | Rest activity of completely dissolved natamycin over time ([2]; pH = 4.0, 3 weeks, stored at 18° C. in the dark) | Rest activity of completely dissolved natamycin over time ([2]; pH = 4.0, 9 weeks, stored at 18° C. in the dark) | Rest activity of completely dissolved natamycin over time ([2]; pH = 4.0, 1 day, stored at 18° C. in the dark) | Rest activity of completely dissolved natamycin over time ([2]; pH = 6.0 + Na2EDTA (1000 ppm di-sodium-EDTA), 3 weeks, 18° C. dark) | Rest activity of completely dissolved natamycin over time ([2]; pH = 6.0 + Na2EDTA (1000 ppm di-sodium-EDTA), 9 weeks, 18° C. dark) | Rest activity of completely dissolved natamycin over time ([2]; pH = 6.0 + Na2EDTA (1000 ppm di-sodium-EDTA), 1 day, 18° C. dark) | Rest activity of completely dissolved natamycin over time ([2]; pH = 6.0, 3 weeks, stored at 18° C. in the dark) | Rest activity of completely dissolved natamycin over time ([2]; pH = 6.0, 9 weeks, stored at 18° C. in the dark) | Rest activity of completely dissolved natamycin over time ([2]; pH = 6.0, 1 day, stored at 18° C. in the dark) | Structure (SMILES) | Solublized after 1 minute stirring at room temperature ([1]; 250 ppm polyene fungicide in final mixture, solvent 1% (w/w) SDS) | Solublized after 1 minute stirring at room temperature ([1]; 250 ppm polyene fungicide in final mixture, solvent Demi-Water) | Solublized after 1 minute stirring at room temperature ([1]; 500 ppm polyene fungicide in final mixture, solvent 1% (w/w) SDS) | Solublized after 1 minute stirring at room temperature ([1]; 1000 ppm polyene fungicide in final mixture, solvent 1% (w/w) SDS)
1 | – | – | – | – | – | – | – | – | – | C[C@@H]1[C@H](O)[C@@H](C)/C=C/C=C/CC/C=C/C=C/C=C/C=C/C(O[C@H]2O[C@H](C)[C@@H](O)[C@H](N)[C@@H]2O)CC2O[C@](O)(CC(O)C(O)CCC(O)CC(O)CC(O)CC(=O)O[C@H]1C)CC(O)C2C(=O)O (stereo partly shown) [Nystatin] | Yes | No | Almost | No
2 | <0.1 ppm | <0.1 ppm | 672 ppm | 805 ppm | 560 ppm | 1000 ppm | 444 ppm | 57 ppm | 988 ppm | C[C@@H]1C/C=C/C=C/C=C/C=C/[C@H](O[C@@H]2O[C@H](C)[C@@H](O)[C@H](N)[C@@H]2O)C[C@@H]2O[C@](O)(C[C@@H](O)C[C@H]3O[C@@H]3/C=C/C(=O)O1)C[C@H](O)[C@H]2C(=O)O [Natamycin, natamycin] | – | – | – | –

From patent publication US20090264379A1, “Stable aqueous solution of a polyene fungicide” (DSM IP ASSETS B.V., priority 2003, published 2009)
